{
  "source": "patent US9663473B2",
  "about": "(Actelion Pharmaceuticals Ltd, priority 2013, dated 2017)",
  "note": "Where a name gives a salt, the structure may show the parent alone.",
  "data": [
    {"biological_target": "T1, recombinant human ALX receptor (Homo sapiens, UniProt P25090)", "T1 construct": "expressed in transfected cells; host or cells: HEK293 (HEK293-hALXR-Gα16)", "T1 sequence (P25090 1-351)": "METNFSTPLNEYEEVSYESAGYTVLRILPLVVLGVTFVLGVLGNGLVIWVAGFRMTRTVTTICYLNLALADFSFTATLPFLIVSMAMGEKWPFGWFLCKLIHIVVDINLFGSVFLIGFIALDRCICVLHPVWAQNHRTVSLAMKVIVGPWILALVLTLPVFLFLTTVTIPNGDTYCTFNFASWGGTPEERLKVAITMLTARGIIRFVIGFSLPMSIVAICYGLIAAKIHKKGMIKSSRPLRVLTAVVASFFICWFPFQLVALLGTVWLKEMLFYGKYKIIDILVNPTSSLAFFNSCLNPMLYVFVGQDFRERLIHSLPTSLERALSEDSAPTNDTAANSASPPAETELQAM", "assay": "Intracellular calcium measurements (FLIPR), ALX receptor agonistic activity", "assay_type": "cell-based", "settings": "HEK293-hALXR-Gα16 cells, Fluo-4 calcium signal, normalized to WKYMVm 10 nM", "in_short": "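HEK293 cells co-expressing human ALX receptor and Gα16 were loaded with 1 μM Fluo-4 AM for 60 min at 37° C., then exposed to serially diluted compounds on FLIPR Tetra. Peak fluorescence above baseline (ex 488/em 540 nm) was normalized to 10 nM WKYMVm as high control.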", "units": {"EC50": "nM"}, "values": [
      {"smiles": "COc1ccc(CC(NC(=O)N[C@H]2CC[C@@](C)(O)CC2)c2nc3ccccc3[nH]2)cc1F", "note": "(relative stereo) [Example 227, 1-(1-(1H-Benzo[d]imidazol-2-yl)-2-(3-fluoro-4-methoxyphenyl)ethyl)-3-(cis-4-hydroxy-4-methylcyclohexyl)urea]", "EC50": 97},
      {"smiles": "COc1ccc(C[C@@H](NC(=O)N[C@@H]2CNC[C@@H]2F)c2nc3ccccc3[nH]2)cc1", "note": "(relative stereo) [Example 185, 1-((R)-1-(1H-Benzo[d]imidazol-2-yl)-2-(4-methoxyphenyl)ethyl)-3-((3R*,4S*)-4-fluoropyrrolidin-3-yl)urea]", "EC50": 143},
      {"smiles": "COC(=O)N1CCC(NC(=O)N[C@H](Cc2ccc(OC)cc2)c2nc3ccccc3[nH]2)C1", "note": "(stereo partly drawn) [Example 158, Methyl 3-(3-((R)-1-(1H-benzo[d]imidazol-2-yl)-2-(4-methoxyphenyl)ethyl)ureido)pyrrolidine-1-carboxylate]", "EC50": 158},
      {"smiles": "COc1ccc(C[C@@H](NC(=O)N2CCC3CNCC32)c2nc3ccccc3[nH]2)cc1", "note": "(stereo partly drawn) [Example 127, N—((R)-1-(1H-Benzo[d]imidazol-2-yl)-2-(4-methoxyphenyl)ethyl)hexahydropyrrolo[3,4-b]pyrrole-1(2H)-carboxamide]", "EC50": 246},
      {"smiles": "COC[C@H](Cc1ccccc1)NC(=O)N[C@H](Cc1ccc(OC)cc1)c1nc2ccccc2[nH]1", "note": "[Example 204, 1-((R)-1-(1H-Benzo[d]imidazol-2-yl)-2-(4-methoxyphenyl)ethyl)-3-((S)-1-methoxy-3-phenylpropan-2-yl)urea]", "EC50": 5},
      {"smiles": "COc1ccc(CC(NC(=O)NC23CCC(O)(CC2)CC3)c2nc3ccc(F)cc3[nH]2)c(F)c1", "note": "(stereo not shown) [Example 245, 1-(1-(6-Fluoro-1H-benzo[d]imidazol-2-yl)-2-(2-fluoro-4-methoxyphenyl)ethyl)-3-(4-hydroxybicyclo[2.2.2]octan-1-yl)urea]", "EC50": 4.1},
      {"smiles": "COc1cc(F)c(CC(NC(=O)NC23CCC(O)(CC2)CC3)c2nc3ccccc3[nH]2)c(F)c1", "note": "(stereo not shown) [Example 248, 1-(1-(1H-Benzo[d]imidazol-2-yl)-2-(2,6-difluoro-4-methoxyphenyl)ethyl)-3-(4-hydroxybicyclo[2.2.2]octan-1-yl)urea]", "EC50": 4.5},
      {"smiles": "COc1ccc(C[C@@H](NC(=O)NCC2CCc3ccccc32)c2nc3ccccc3[nH]2)cc1", "note": "(stereo partly drawn) [Example 72, 1-((R)-1-(1H-Benzo[d]imidazol-2-yl)-2-(4-methoxyphenyl)ethyl)-3-((2,3-dihydro-1H-inden-1-yl)methyl)urea]", "EC50": 67},
      {"smiles": "COc1ccc(C[C@@H](NC(=O)NC23CCC(O)(CC2)CC3)c2nc3ccc(Cl)cc3[nH]2)cc1", "note": "[Example 192, (R)-1-(1-(6-Chloro-1H-benzo[d]imidazol-2-yl)-2-(4-methoxyphenyl)ethyl)-3-(4-hydroxybicyclo[2.2.2]octan-1-yl)urea]", "EC50": 0.1},
      {"smiles": "COc1ccc(C[C@@H](NC(=O)NCc2ccccc2C)c2nc3ccccc3[nH]2)cc1", "note": "[Example 202, (R)-1-(1-(1H-Benzo[d]imidazol-2-yl)-2-(4-methoxyphenyl)ethyl)-3-(2-methylbenzyl)urea]", "EC50": 602},
      {"smiles": "O=C(NC(Cc1ccc(C(F)(F)F)cc1F)c1nc2cc(F)ccc2[nH]1)NC12CCC(O)(CC1)CC2", "note": "(single isomer, unassigned; ent-1) [Example 361, 1-(1-(5-Fluoro-1H-benzo[d]imidazol-2-yl)-2-(2-fluoro-4-(trifluoromethyl)phenyl)ethyl)-3-(4-hydroxybicyclo[2.2.2]octan-1-yl)urea (ent-1)]", "EC50": 3.9},
      {"smiles": "COc1ccc(CC(NC(=O)Nc2ccnn2-c2cccc(OC)c2)c2nc3ccccc3[nH]2)cc1", "note": "(stereo not shown) [Example 419, 1-(1-(1H-benzo[d]imidazol-2-yl)-2-(4-methoxyphenyl)ethyl)-3-(1-(3-methoxyphenyl)-1H-pyrazol-5-yl)urea]", "EC50": 56},
      {"smiles": "COc1ccc(C[C@@H](NC(=O)NCCc2cccc(Cl)c2)c2nc3ccccc3[nH]2)cc1", "note": "[Example 61, (R)-1-(1-(1H-Benzo[d]imidazol-2-yl)-2-(4-methoxyphenyl)ethyl)-3-(3-chlorophenethyl)urea hydrochloride]", "EC50": 239}
    ]}
  ]
}
